Assay [1] has as its target T1, 125I-BH-eledoisin binding sites in rat brain cortex membranes (Rattus norvegicus, UniProt P16177).
T1 construct: from tissue; host or cells: rat brain cortex membranes
T1 sequence (P16177 1-452): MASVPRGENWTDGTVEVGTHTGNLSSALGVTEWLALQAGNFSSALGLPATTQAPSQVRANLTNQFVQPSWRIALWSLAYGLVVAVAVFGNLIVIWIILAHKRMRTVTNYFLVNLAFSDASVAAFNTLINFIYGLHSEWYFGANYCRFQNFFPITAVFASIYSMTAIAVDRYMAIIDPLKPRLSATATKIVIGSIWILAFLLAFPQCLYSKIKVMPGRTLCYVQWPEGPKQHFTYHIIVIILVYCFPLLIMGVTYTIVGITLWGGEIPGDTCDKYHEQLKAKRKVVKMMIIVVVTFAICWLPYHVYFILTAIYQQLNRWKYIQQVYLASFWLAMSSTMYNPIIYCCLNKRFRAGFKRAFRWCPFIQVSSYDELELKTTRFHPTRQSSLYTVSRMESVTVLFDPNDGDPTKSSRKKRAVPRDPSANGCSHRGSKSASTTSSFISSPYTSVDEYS
Put plainly: eledoisin binding assay (competition for 125I-BH-eledoisin binding sites). To be noted: peptides dissolved in DMSO. The method, then:
(§1) Representative compounds of this invention were tested in the substance P (SP) and eledoisin binding assays. The peptides were dissolved in DMSO and tested for their abilities to compete for ^125 I-BH-SP and ^125 I-BH-eledoison binding sites in rat brain cortex membranes (Cascieri and Liang, J. Biol. Chem., 258, 5158 (1983); Life Sciences, 35, 179 (1984)).
(§2) The following table summarizes the IC50 data obtained in both assay systems as well as showing the IC50 ratio for each peptide in the SP and eledoisin binding assays.

Assay [2] concerns the target T2, 125I-BH-SP binding sites in rat brain cortex membranes (Rattus norvegicus, UniProt P14600).
T2 construct: from tissue; host or cells: rat brain cortex membranes
Kind of assay: substance P (SP) binding assay (competition for 125I-BH-SP binding sites). The settings on record: peptides dissolved in DMSO. The method, then: as §1, §2

T2 sequence (P14600 whole entry): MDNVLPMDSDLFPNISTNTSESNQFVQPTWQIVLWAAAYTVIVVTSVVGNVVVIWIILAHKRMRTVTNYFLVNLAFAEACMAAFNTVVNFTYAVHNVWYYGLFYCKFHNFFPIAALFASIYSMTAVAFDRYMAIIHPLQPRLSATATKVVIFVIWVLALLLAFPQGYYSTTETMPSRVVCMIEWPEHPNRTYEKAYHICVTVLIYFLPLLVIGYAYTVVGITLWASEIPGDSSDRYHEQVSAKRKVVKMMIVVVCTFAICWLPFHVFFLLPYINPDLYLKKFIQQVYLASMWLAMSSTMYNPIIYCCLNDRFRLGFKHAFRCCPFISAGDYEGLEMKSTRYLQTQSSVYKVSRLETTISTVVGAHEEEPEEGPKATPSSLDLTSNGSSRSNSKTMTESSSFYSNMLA

The term IC50 denotes the concentration at which inhibition is half-maximal. Lower therefore signals greater potency in that assay. For `CSCC[C@H](NC(=O)[C@H](CC(C)C)N1CC[C@H](NC(=O)[C@H](Cc2ccccc2)NC(=O)[C@H](Cc2ccccc2)NC(=O)[C@@H]2CCC(=O)N2)C1=O)C(N)=O` [L-363,232], the IC50 in assay [1] worked out at 32 µM; in assay [2], 60 µM.
Taken in the same sequence, the figures for `CSCC[C@H](NC(=O)[C@H](CC(C)C)N1CC[C@@H](NC(=O)[C@H](Cc2ccccc2)NC(=O)[C@H](Cc2ccccc2)NC(=O)[C@@H]2CCC(=O)N2)C1=O)C(N)=O` [L-363,851, Pyroglutamyl-phenylalanyl-phenylalanyl-[(R)-3-amino-2-oxo-1-pyrrolidine-(S)-4-methyl-2-pentanoyl]-methionine amide] were 0.014 µM and 13 µM.

Source of the values: patent US4680283A, “Analogs of substance P and eledoisin” (Merck & Co., Inc., priority 1986, dated 1987).
